≈ marks a conversion by molar mass, not a printed value. Like-named read-outs stand apart in the source and are kept apart here.
Columns and labels:
[1] = tested on: Wolbachia strain B of A. albopictus; assay: Quantification (depletion) of Wolbachia by qPCR, 16S rDNA/actin B ratio; type: cell-based, Wolbachia strain B of Aedes albopictus; conditions: 4 µg/mL, 9 days, C6/36 cells, positive control
Experimental: (a) A. albopictus C6/36 cells infected with Wolbachia strain B of A. albopictus were cultured for 9 days with or without the compounds at varying concentrations. […] (c) The depletion of Wolbachia from infected and treated C6/36 cells was measured after 9 days by extracting genomic DNA and measuring the ratio of Wolbachia 16S rDNA and A. albopictus actin B by qPCR; the median ± interquartile range from three experiments is shown.
Susceptibility of Wolbachia toward different compounds was tested as described [32, 53]. In short, 1 × 10^4 cells/well of A. albopictus C6/36 infected with Wolbachia were cultured in supplemented medium in 96-well plates with or without compound at 26 °C for 9 days. The medium, with and without compound, was exchanged every third day, and the cells were harvested on day 9 for the extraction of genomic DNA using the QIAamp Kit (Qiagen, Hilden, Germany) according to the manufacturer’s protocol. Wolbachia were quantified by qPCR of the 16S rDNA gene of Wolbachia (GenBank accession No. X61767) and the actin B gene of A. albopictus (GenBank accession no. DQ657949) as described [32, 91]. A plasmid containing the appropriate insert was used to generate a standard curve to determine the copy number of the genes. The abundance of Wolbachia was normalized by calculating the ratio of 16S rDNA copies/µL to actin B copies/µL.

C. trachomatis serovar D = C. trachomatis serovar D in cell culture; cited from earlier work
Experimental: The tested compounds were applied to C. trachomatis-infected cells at an early stage of the chlamydial developmental cycle (Figure 1a), before the bacteria started replicating. During the early treatment with MRY D2, the majority of muraymycin derivatives and cCPZ had MICs between 16 µg/mL for cCPZ and 128 µg/mL for MRY D2 (Figure 1d). These MICs were relatively high compared with the MICs of the first-choice antibiotics against uncomplicated chlamydial genital infections, DOX and AZI, which have MICs of <1 µg/mL against C. trachomatis serovar D in cell culture. All der ...

C. trachomatis D/UW-3/CX [2] = assay: Anti-chlamydial activity (MIC) in C. trachomatis-infected HEp-2 cells, fluorescence microscopy; type: cell-based; conditions: for MIC: C. trachomatis D/UW-3/CX-infected HEp-2 cells, compound added at 2 hpi, fluorescence microscopy at 30 hpi, MIC = lowest concentration with >90% reduction in inclusions or inducing enlarged aberrant cells, three experiments; for Effect on C. trachomatis infection (phenotype): added at 2 hpi, read at 30 hpi, HEp-2 cells
Experimental: First, we tested the lead compound MRY D2 (Figure 1a) and seven muraymycin derivatives (MRH; described in [47, 48]) on C. trachomatis in cell culture experiments. To this end, C. trachomatis D/UW-3/CX-infected HEp-2 cells were treated with the compounds at 2 h post infection (hpi; Figure 1b), which represents an early stage of the chlamydial developmental cycle before bacterial replication. Inhibitors were applied over a range of concentrations that were not detrimental to HEp-2 host cells in resazurin-based viability assays (Table S1), and the effects were visualized by fluorescence microscopy (Figure 1c and Figure S2) at 30 hpi. The minimal inhibitory concentration (MIC) for Chlamydia was defined as either the lowest concentration leading to a >90% reduction in inclusions or, for aberrance-inducing compounds, the concentration leading to abnormal chlamydial cell phenotypes, i.e., enlarged cells after treatment with PEN G [39].
(§1) The effect of the compounds on active C. trachomatis infections was analyzed by fluorescence microscopy. […] The cells were washed once with medium and infected with freshly prepared C. trachomatis D/UW-3/CX EB-containing suspension. After 2 h incubation, the EB suspension was aspirated, and the cells were washed twice with medium. The effect of compounds on an infection was determined by application of the compound at 2 hpi or 12 hpi in a serial dilution from 1 µg/mL to 64 µg/mL (MRH-25, -76, -92, cCPZ) or from 1 µg/mL to 128 µg/mL (MRY D2, MRH-22, -23, -38, and -82). Negative controls were conducted with DMSO as a vehicle control. For Chlamydia, the MIC is defined as a >90% reduction in inclusions. The MIC of compounds inducing the formation of enlarged, aberrant bodies is the lowest concentration that induces the abnormal inclusion morphology.
Infected HEp-2 cells were fixed and permeabilized with 100% (v/v) ice-cold methanol at 30 hpi and washed once with 1 × phosphate-buffered saline (PBS, 4 mM KH2PO4 pH 7.4, 16 mM Na2HPO4, 115 mM NaCl). The Pathfinder Chlamydia Culture Confirmation System (Bio-Rad Laboratories, Hercules, CA) was used to stain the C. trachomatis lipopolysaccharide and host cell cytoplasm by incubation for 30 min at 37 °C. Genomic DNA was stained with 10 µg/mL DAPI (Thermo Fisher Scientific) for 1 min and then washed twice with PBS for 10 min at 4 °C. Fluorescence microscopy was performed with an Axio observer Z.1 using the Zen2 software (Carl Zeiss, Oberkochen, Germany).

HEp-2 cells [3] = tested on: HEp-2 cells
Experimental: (§2) Cytotoxicity of the compounds toward HEp-2 cells was assessed using the resazurin-based alamarBlue cell viability reagent (Thermo Fisher Scientific, Waltham, MA, USA). 5 × 10^4 HEp-2 cells/mL were seeded into flat base TC-96-well plates (Sarstedt, Nümbrecht, Germany) and incubated at 37 °C and 5% (v/v) CO2. After 48 h, the cells were washed with medium, followed by the addition of compounds in a serial dilution ranging from 128 µg/mL to 1 µg/mL for another 28 h. Next, the cells were washed twice with Hank’s balanced salt solution (HBSS) and incubated with the alamarBlue cell viability reagent diluted 1:10 in HBSS for 1 h. The conversion of resazurin into resorufin by viable cells was determined by transferring the supernatant into black 96-well plates (Greiner Bio-One, Frickenhausen, Germany) and measuring the fluorescence at 550 nm excitation and 595 nm emission wavelengths using a Tecan infinite M200 plate reader and Tecan SparkControl software v3.2 (Tecan Group, Männedorf, Switzerland). HEp-2 cell viability was normalized to the vehicle control, and the cytotoxic concentration 50% (CC50) was calculated by non-linear regression using GraphPad Prism v10.1.2 (GraphPad Software, San Diego, CA, USA).

HEp-2 cells [4] = assay: Cytotoxicity toward HEp-2 cells, resazurin-based alamarBlue viability assay; conditions: 28 h incubation, normalized to DMSO, non-linear regression from mean of two independent experiments, highest concentration tested 128 µg/mL
Experimental: as §2

C. pneumoniae MraY = assay: Inhibition of C. pneumoniae MraY in vitro (lipid I formation, TLC); type: biochemical; conditions: 0.5 µM compound (range tested 0.05-0.5 µM), 2 µg MraYCpn, C55-P, UDP-MurNAc-pentapeptide, 90 min, duplicate
Description: (a) C. pneumoniae and Wolbachia spp. MraY use the precursor molecules undecaprenyl-phosphate (C55-P) and uridine diphosphate (UDP)-N-acetylmuramoyl(MurNAc)-pentapeptide to form lipid I, which is glycosylated with N-acetylglucosamine (GlcNAc) by MurG, yielding lipid II. IM: inner membrane; UMP: uridine monophosphate; mDAP: meso-diaminopimelic acid; C55-P: undecaprenyl-phosphate. […] Reaction products were extracted, separated via thin-layer chromatography, and stained. Formation of lipid I by MraYCpn was inhibited by both tested inhibitors.
C. pneumoniae MraY was heterologously overexpressed in E. coli, purified via His-tag affinity chromatography, and inhibition of the enzymatic activity was analyzed by visualizing the reaction products via thin-layer chromatography.
Inhibition assays with MraYCpn and the compounds were performed based on the activity assays for MraYCpn as previously described, with minor modifications, in a final volume of 50 µL. First, 2.5 nmol C55-P (Larodan, Solna, Sweden) was dissolved in 0.43% (v/v) Triton X-100 by vortexing for 1 min. Then, 75 mM Tris-HCl (pH 7.5), 6 mM MgCl2, 10% (v/v) DMSO, and UDP-MurNAc-pentapeptide obtained from Bacillus cereus DSM2302 (based on) were added. Compounds were applied at the indicated concentrations and incubated with 2 µg MraYCpn at 30 °C for 90 min. […]

C. trachomatis D/UW-3/CX [5] = assay: Effect of MRY D2 on active (mid-stage) and penicillin G-induced persistent C. trachomatis infections, inclusion counts; type: cell-based; conditions: read at 30 hpi
Experimental: Figure 6 Effect of MRY D2 on PEN G-induced persistent C. trachomatis infections. (a) HEp-2 cells infected with C. trachomatis D/UW-3/CX were treated with 128 µg/mL MRY D2 at 2 hpi or 12 hpi to analyze the effect on active infection. Additionally, 128 µg/mL MRY D2 and 100 U/mL PEN G were added simultaneously at 2 hpi. To assess the effect on a PEN G-induced persistent infection, 100 U/mL PEN G was added at 2 hpi, and 128 µg/mL MRY D2 was added at 12 hpi. Anti-chlamydial activity was analyzed at 30 hpi by fluorescence microscopy. (b) Eukaryotic host cell cytoplasm from representative images was labelled with Evans Blue (red), genomic DNA with DAPI (blue), and chlamydial lipopolysaccharide with fluorescein (green). Scale bar: 10 µm. (c) Mean ± SD of inclusions/field and (d) the relative number of inclusions filled with either elementary bodies (EBs)/reticulate bodies (RBs), ABs, or a mixed phenotype, analyzed from three images. An unpaired, two-tailed Student’s t-test was performed against the respective vehicle control. ns: not significant, p > 0.05; *: p = 0.05 to 0.01; **: p = 0.01 to 0.001; ****: p < 0.0001. In comparison with the DMSO vehicle control, the addition of PEN G at 2 hpi induced persistence, characterized by aberrant bodies. Early application of MRY D2 at 2 hpi (p < 0.0001) and simultaneous application with PEN G at 2 hpi induced the formation of ABs. […] This was also visible if persistence was induced by PEN G at 2 hpi followed by MRY D2 addition at 12 hpi (p = 0.0037).
as §1
The effect of MRY D2 on penicillin-induced persistent C. trachomatis infections was analyzed as described for the active infection, with the following modifications. After removal of the EB-containing lysate at 2 hpi and washing of the cells, 100 U/mL PEN G was added to induce a persistent infection. MRY D2 was added at 12 hpi in a concentration range of 128 µg/mL to 1 µg/mL by serial dilution. In another approach, MRY D2 was applied simultaneously with PEN G at 2 hpi to determine if early administration influences the establishment of a persistent infection.
Infected HEp-2 cells were fixed and permeabilized with 100% (v/v) ice-cold methanol at 30 hpi and washed once with 1 × phosphate-buffered saline (PBS, 4 mM KH2PO4 pH 7.4, 16 mM Na2HPO4, 115 mM NaCl). The Pathfinder Chlamydia Culture Confirmation System (Bio-Rad Laboratories, Hercules, CA) was used to stain the C. trachomatis lipopolysaccharide and host cell cytoplasm by incubation for 30 min at 37 °C. […] Fluorescence microscopy was performed with an Axio observer Z.1 using the Zen2 software (Carl Zeiss, Oberkochen, Germany).
Inclusions were quantified using CellProfiler 4.0.6. […]

[6] = 128 µg/mL MRY D2 alone added at 12 hpi

Compound: C[C@H]1c2cccc(O)c2C(=O)C2=C(O)[C@]3(O)C(=O)C(C(N)=O)=C(O)[C@@H](N(C)C)[C@@H]3[C@@H](O)[C@@H]21 [DOX, doxycycline]
- Depletion of Wolbachia (16S rDNA/actin B by qPCR) [1]: nearly completely depleted
- MIC (C. trachomatis serovar D): < 1 µg/mL

Compound: CCCCCCCCCCCCCCCCC[C@H]1CN(C)[C@@H]([C@H](O[C@@H]2O[C@H](CN)[C@@H](O)[C@H]2O)[C@H]2O[C@@H](n3ccc(=O)[nH]c3=O)[C@H](O)[C@@H]2O)C(=O)N(C)[C@@H]1C(=O)O [cCPZ, carbacaprazamycin]
- MIC (C. trachomatis D/UW-3/CX [2]): 16 µg/mL (≈ 20.1 µM)
- CC50 (HEp-2 cells [3]): 124 µg/mL (≈ 155 µM)

Compound: CC1(C)S[C@@H]2[C@H](NC(=O)Cc3ccccc3)C(=O)N2[C@H]1C(=O)O [PEN, penicillin, reference compound]
- Effect on C. trachomatis infection (phenotype) (C. trachomatis D/UW-3/CX [2]; 100 U/mL): induced persistence visible as enlarged, aberrant bodies

Compound: CC(C)C[C@H](NC(=O)[C@@H](NC(=O)N[C@H](C(=O)O)C(C)C)[C@@H]1CCN=C(N)N1)C(=O)NCCCN[C@H](C(=O)O)[C@H](O[C@@H]1O[C@H](CN)[C@@H](O)[C@H]1O)[C@H]1O[C@@H](n2ccc(=O)[nH]c2=O)[C@H](O)[C@@H]1O [MRY D2, Muraymycin D2]
- MIC (C. trachomatis D/UW-3/CX [2]): 128 µg/mL (≈ 140 µM)
- CC50 (HEp-2 cells [4]): > 128 µg/mL
- Inhibition of lipid I formation by recombinant MraYCpn (C. pneumoniae MraY): completely abolished enzymatic activity
- Relative number of inclusions containing EBs/RBs (C. trachomatis D/UW-3/CX [5]; [6]): 83%
- Relative number of inclusions containing a mixed phenotype (EBs/RBs/ABs) (C. trachomatis D/UW-3/CX [5]; [6]): 8%
- Phenotype on simultaneous treatment with PEN G (C. trachomatis D/UW-3/CX [5]; 128 µg/mL MRY D2 and 100 U/mL PEN G added simultaneously at 2 hpi): inclusions filled with ABs were visible as for PEN G alone
- Fewer inclusions (reduction in inclusion number) (C. trachomatis D/UW-3/CX [5]; active infection: 128 µg/mL MRY D2 alone added at 12 hpi): 75%
- Reduction of the inclusion quantity (C. trachomatis D/UW-3/CX [5]; established persistent infection: 100 U/mL PEN G at 2 hpi, then 128 µg/mL MRY D2 at 12 hpi, vs PEN G only): 70%

Compound: O=C(O)c1cn(C2CC2)c2cc(N3CCNCC3)c(F)cc2c1=O [CIP, ciprofloxacin, reference compound]
- Effect on C. trachomatis infection (phenotype) (C. trachomatis D/UW-3/CX [2]; 0.5 µg/mL): bactericidal

Compound: CC[C@H]1OC(=O)[C@H](C)[C@@H](O[C@H]2C[C@@](C)(OC)[C@@H](O)[C@H](C)O2)[C@H](C)[C@@H](O[C@@H]2O[C@H](C)C[C@H](N(C)C)[C@H]2O)[C@](C)(O)C[C@@H](C)CN(C)[C@H](C)[C@@H](O)[C@]1(C)O [AZI, azithromycin]
- MIC (C. trachomatis serovar D): < 1 µg/mL

From article PMC11117252, “The MraY Inhibitor Muraymycin D2 and Its Derivatives Induce Enlarged Cells in Obligate Intracellular Chlamydia and Wolbachia and Break the Persistence Phenotype in Chlamydia” (Antibiotics, 2024)
